Test results taken from patent publication US20100120789A1, “Compound” (priority 2005, published 2010).

Target: Human 11β-HSD1 (Homo sapiens, UniProt P28845)
Assay: 11β-HSD1 HEK assay (whole HEK 293 cells stably transfected with HSD11B1, SPA)
Assay type: cell-based
Design: expressed in transfected cells; host or cells: HEK 293
Conditions: HEK293, read-out: % INHIBITION of Human 11 β-HSD1 at 10 μM (HEK)
Description: 11β-HSD1 HEK Assay Protocol (Cell Based Assay)
11β-HSD1 activity is measured in whole HEK 293 cells stably transfected with the HSD11B1 gene. Cells are incubated in 96-well microplates in the presence of tritiated substrate. Enzyme activity is determined by measuring the amount of tritated product by scintillation proximity assay (SPA). Assay plates contain internal high and low controls to allow calculation of percentage inhibition.
2. When the cells are 80% confluent the medium is removed from each well. 100 μl fresh, serum-free, medium containing ^3H-cortisone and test compound in 1% DMSO is added to each well*. Control wells are also dispensed.
3. The plate is incubated at […] for the required time period.
4. 50 μl of media is removed from each well and transferred to a microplate containing 100 μl of a pre-incubated mixture of anti-cortisol antibody and SPA bead. The mixture is incubated with gentle shaking until equilibrium is reached, before transferring to a scintillation counter to establish the enzyme activity in each sample.
10 μl of compound is dispensed into each well of a 96-well microplate in 10% DMSO at 100 μM concentration. 90 μl media containing ^3H-cortisone is added to each well. The compound/media/substrate mixture is then transferred to the assay plate containing the cells.

Human 11β-HSD1, sequence (P28845 whole entry): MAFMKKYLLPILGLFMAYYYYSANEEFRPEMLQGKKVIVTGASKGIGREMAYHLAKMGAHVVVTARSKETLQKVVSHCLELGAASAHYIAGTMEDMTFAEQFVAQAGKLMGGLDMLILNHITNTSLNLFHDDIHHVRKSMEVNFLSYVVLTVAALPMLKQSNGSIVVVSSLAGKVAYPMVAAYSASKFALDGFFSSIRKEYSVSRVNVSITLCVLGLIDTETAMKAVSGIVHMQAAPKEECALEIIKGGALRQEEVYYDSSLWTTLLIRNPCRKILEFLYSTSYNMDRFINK

`O=S(=O)(NC12CC3CC(CC(C3)C1)C2)c1cc(Cl)ccc1Cl` [compound 1342] and `Cc1c(Cl)cccc1S(=O)(=O)NC12CC3CC(CC(C3)C1)C2` [compound 1343] fall in the same range of inhibition at 10 µM: 20 to 60% for the first, 20 to 60% for the second.

`Cc1c(Cl)cccc1S(=O)(=O)NCC12CC3CC(CC(C3)C1)C2` [compound 1370] and `O=S(=O)(NCC12CC3CC(CC(C3)C1)C2)c1ccc(-c2ccccc2)cc1` [compound 1371] fall in the same range of inhibition at 10 µM: 20 to 60% for the first, 20 to 60% for the second.

`Cc1nc2cc(NC(=O)CC34CC5CC(CC(C5)C3)C4)ccc2s1` [compound 1566] and `O=C(CC12CC3CC(CC(C3)C1)C2)NCc1cc2ccccc2s1` [compound 1690] fall in the same range of inhibition at 10 µM: 20 to 60% for the first, 20 to 60% for the second.

Compared with `O=C(NCc1cccs1)C1CCCCC1` [compound 1638], `CN(Cc1cccs1)C(=O)C1CCCCC1` [compound 1693] is higher in inhibition at 10 µM: 20 to 60% for the first, greater than 60% for the second.

`CC(C)(C)CC(=O)NCc1cccs1` [compound 1639] and `CC(C)(C)CC(=O)NCCc1cccs1` [compound 1652] fall in the same range of inhibition at 10 µM: 20 to 60% for the first, 20 to 60% for the second.

First: CC(C(=O)NCc1cccs1)(c1ccccc1)c1ccccc1 [compound 1640]
Second: CC(C(=O)NCCc1cccs1)(c1ccccc1)c1ccccc1 [compound 1650]
The inhibition at 10 µM of the first is higher: 20 to 60% for the first, less than 20% for the second.

`CC1(C(=O)NCc2cccs2)CC1` [compound 1641] and `CC1(C(=O)NCc2cccs2)CCCCC1` [compound 1642] fall in the same range of inhibition at 10 µM: 20 to 60% for the first, 20 to 60% for the second.

`O=C(NCc1cccs1)C12CC3CC(CC1C3)C2` [compound 1648] and `O=C(NCCc1cccs1)C12CC3CC(CC1C3)C2` [compound 1656] cannot be ordered by inhibition at 10 µM: greater than 60% for the first, greater than 60% for the second.

Going from `O=C(NCCc1cccs1)C1(c2ccc(Cl)cc2)CCCC1` [compound 1651] to `CN(Cc1cccs1)C(=O)C1(c2ccc(Cl)cc2)CCCC1` [compound 1696], the inhibition at 10 µM rises from less than 20% to greater than 60%.

First: CC1(C(=O)NCCc2cccs2)CC1 [compound 1654]
Second: CC1(C(=O)NCCc2cccs2)CCCCC1 [compound 1655]
The inhibition at 10 µM of the first is lower: 20 to 60% for the first, greater than 60% for the second.

`Cc1ccc(Cc2noc(C34CC5CC(CC(C5)C3)C4)n2)cc1` [compound 1660] and `Cc1ccc(Cc2noc(CC34CC5CC(CC(C5)C3)C4)n2)cc1` [compound 1664] fall in the same range of inhibition at 10 µM: 20 to 60% for the first, 20 to 60% for the second.

`CN(Cc1cccs1)C(=O)CC12CC3CC(CC(C3)C1)C2` [compound 1661] and `CN(Cc1cccs1)C(=O)C12CC3CC(CC(C3)C1)C2` [compound 1700] cannot be ordered by inhibition at 10 µM: greater than 60% for the first, greater than 60% for the second.

`O=C(CC12CC3CC(CC(C3)C1)C2)NCc1ccco1` [compound 1662] and `Cn1cccc1CNC(=O)CC12CC3CC(CC(C3)C1)C2` [compound 1663] cannot be ordered by inhibition at 10 µM: greater than 60% for the first, greater than 60% for the second.

`CC12CC3CC(C)(C1)CC(C(=O)NCc1cccs1)(C3)C2` [compound 1671] and `CC12CC3CC(C)(C1)CC(C(=O)NCCc1cccs1)(C3)C2` [compound 1672] cannot be ordered by inhibition at 10 µM: greater than 60% for the first, greater than 60% for the second.

`CC(C)(C)C(=O)NCc1cccs1` [compound 1673] and `CC(C)(C)C(=O)NCCc1cccs1` [compound 1674] fall in the same range of inhibition at 10 µM: 20 to 60% for the first, 20 to 60% for the second.

Going from `O=C(NCc1cccs1)C12CC3CC(CC(O)(C3)C1)C2` [compound 1675] to `O=C(NCCc1cccs1)C12CC3CC(CC(O)(C3)C1)C2` [compound 1676], the inhibition at 10 µM rises from less than 20% to greater than 60%.

First: c1csc(Cc2noc(C34CC5CC(CC(C5)C3)C4)n2)c1 [compound 1687]
Second: O=C(COCc1cccs1)C12CC3CC(CC(C3)C1)C2 [compound 1692]
The inhibition at 10 µM of the first is lower: 20 to 60% for the first, greater than 60% for the second.

First: O=C(NCc1cc2ccccc2s1)C12CC3CC(CC(C3)C1)C2 [compound 1688]
Second: O=C(NCc1csc2ccccc12)C12CC3CC(CC(C3)C1)C2 [compound 1689]
The inhibition at 10 µM of the first is lower: less than 20% for the first, 20 to 60% for the second.

`O=C(CC12CC3CC(CC(C3)C1)C2)NCc1csc2ccccc12` [compound 1691] and `O=C(NCc1cccs1)NC12CC3CC(CC(C3)C1)C2` [compound 1713] fall in the same range of inhibition at 10 µM: 20 to 60% for the first, 20 to 60% for the second.

First: CN(Cc1cccs1)C(=O)CC(C)(C)C [compound 1694]
Second: CN(Cc1cccs1)C(=O)C(C)(C)C [compound 1695]
The inhibition at 10 µM of the first is higher: greater than 60% for the first, less than 20% for the second.

First: CN(Cc1cccs1)C(=O)C1(C)CC1 [compound 1697]
Second: CN(Cc1cccs1)C(=O)C1(C)CCCCC1 [compound 1699]
The inhibition at 10 µM of the first is lower: less than 20% for the first, greater than 60% for the second.

Compared with `CN(Cc1cccs1)C(=O)C(C)(c1ccccc1)c1ccccc1` [compound 1698], `CN(Cc1cccs1)C(=O)[C@H]1CC2C=CC1C2` (stereo partly shown) [compound 1709] is higher in inhibition at 10 µM: 20 to 60% for the first, greater than 60% for the second.

`O=C(NCc1cccs1)[C@H]1CC2C=CC1C2` (stereo partly shown) [compound 1706] and `O=C(NCCc1cccs1)[C@H]1CC2C=CC1C2` (stereo partly shown) [compound 1707] fall in the same range of inhibition at 10 µM: 20 to 60% for the first, 20 to 60% for the second.

First: O=C(NCCc1cccs1)[C@@H]1CC2C=CC1C2 (stereo partly shown) [compound 1708]
Second: CN(Cc1cccs1)C(=O)[C@@H]1CC2C=CC1C2 (stereo partly shown) [compound 1710]
The inhibition at 10 µM of the first is lower: 20 to 60% for the first, greater than 60% for the second.

`O=C(NC12CC3CC(CC(C3)C1)C2)OCc1cccs1` [compound 1711] and `O=C(NC12CC3CC(CC(C3)C1)C2)OCCc1cccs1` [compound 1712] cannot be ordered by inhibition at 10 µM: greater than 60% for the first, greater than 60% for the second.

`O=C(NCCc1cccs1)NC12CC3CC(CC(C3)C1)C2` [compound 1714] and `O=C(N1CCc2sccc2C1)C12CC3CC(CC(C3)C1)C2` [compound 1721] cannot be ordered by inhibition at 10 µM: greater than 60% for the first, greater than 60% for the second.

Same assay, conditions: HEK293; read-out: IC50 (nM) Inhibition of Human 11β-HSD1 (HEK293)

Point of comparison: `NC(=O)Cc1ccc(OCC(=O)C23CC4CC(CC(C4)C2)C3)cc1` [Compound 15], IC50 204 nM. Against it:
- NC(=O)c1ccc(OCC(=O)C23CC4CC(CC(C4)C2)C3)cc1 [Compound 1] — 1.7-fold lower, 117 nM
- NC(=O)c1cccc(OCC(=O)C23CC4CC(CC(C4)C2)C3)c1 [Compound 9] — 5.1-fold higher, 1050 nM
- CNC(=O)c1cccc(OCC(=O)C23CC4CC(CC(C4)C2)C3)c1 [Compound 10] — 3-fold lower, 68 nM
- CCNC(=O)c1cccc(OCC(=O)C23CC4CC(CC(C4)C2)C3)c1 [Compound 11] — 1.7-fold higher, 343 nM
- CC(C)NC(=O)c1cccc(OCC(=O)C23CC4CC(CC(C4)C2)C3)c1 [Compound 12] — 6-fold higher, 1220 nM
- CNC(=O)Cc1ccc(OCC(=O)C23CC4CC(CC(C4)C2)C3)cc1 [Compound 13] — 2.2-fold lower, 94 nM
- CCNC(=O)Cc1ccc(OCC(=O)C23CC4CC(CC(C4)C2)C3)cc1 [Compound 16] — 4.5-fold higher, 912 nM
- CNC(=O)c1ccc(COCC(=O)C23CC4CC(CC(C4)C2)C3)cc1 [Compound 18] — within 1.5-fold, 250 nM
